For the assay, the system named is cutaneous anaphylaxis. In words: Passive cutaneous anaphylaxis (PCA) in rats. The format is in vivo, male rats. The note with it: Rattus norvegicus. The text has this: Passive cutaneous anaphylaxis (PCA) in rats
Cutaneous anaphylaxis was induced in groups of 7 male rats weighing 180 to 220 grams by intradermal (ID) sensitization with antiserum followed, three days later, by systemic challenge with antigen. Evans blue dye injected with the antigen is used as a marker to assess the severity of the local response. Anti-allergic drugs inhibit this reaction and this method has been described by OVARY (1962) in "Passive Cutaneous Anaphylaxis in Allergology" 258-367 Ed. Brown; Pergamon Press.
Preparation of Antigen (or Sensitization)
(Alum-precipitated ovalbumen)
1. Wash 120 grams of Al(OH)3 gel in 140 ml of saline (use of a macerator facilitates mixing).
2. Centrifuge at 3,000 r.p.m. for about 10 minutes.
3. Resuspend the precipitate with 300 ml of albumen egg powder (1.3 mg/ml) in saline and allow to stand for 30 minutes.
4. Centrifuge at 3,000 r.p.m. for 10 minutes.
5. Weigh the wet precipitate and to each gram weight add 1 ml of saline. Store in frigerator.
(Quantity sufficient for 60 rats for a 3 day sensitization program).
Preparation of Antiserum (i.e. anti-ovalbumen)
1. 1 ml of the alum-precipitated ovalbumen was injected subcutaneously into 180-200 gram rats on days 0,2 and 4.
2. The rats were bled on day 14 either by cardiac puncture or via the dorsal abdominal aorta.
3. Equal quantities of serum from each animal were pooled and thoroughly mixed.
4. 2 ml of aliquots were stored at -20° C. in plastic tubes.
The antiserum for sensitization was diluted so that an ID injection of 0.1 ml into control animals gave an average score of a single spot of between 2.0-3.5 using a 5 point scoring system (0,1,2,3,4)
(A) SENSITIZATION: Rats are anaesthetized with Nembutal (40-60 mg/kg i.p.) and then sensitized by four ID injections (0.1 ml each) on their shaved backs. The animals were then left for a period of three days to develop sensitization.
(B) […]: The sensitized rats were anaesthetised and challenged orally or intravenously via the superficial penile vein with 1 ml of an antigen/Evans blue mixture (1 mg albumen egg powder in 0.5 ml saline plus 0.5 ml of 1% Evans blue). The injections were speeded up by using an automatic 1 ml self filling glass syringe. The "challenged" rats were killed after 30 minutes, (usually pithed) and their skin on the dorsal surface was removed. The degree and area of blueing, proportional to the anaphylactic reaction, was assessed on a five point scoring system.
1. Total scores for sites 1,2,3 and 4=X
2. Mean value of X for each group=X
3. X t=X for test group; X c=X for control group
4. % inhibition=(X c-X t)/X c×100/1

Compound `O=C(O)c1cn2c(n1)c(=O)[nH]c1ccccc12` [Example 2, 4,5-dihydro-4-oxoimidazo-[1,2-a]-quinoxaline-2-carboxylic acid] displayed an ED50 (iv) of 0.16 mg/kg and an ED50 (po) of 2 mg/kg.

In the case of `Cn1c(=O)c2nc(C(=O)O)cn2c2ccccc21` [Example 4, 4,5-dihydro-5-methyl-4-oxoimidazo-[1,2-a]-quinoxaline-2-carboxylic acid], the ED50 by setting is: (iv) 0.031 mg/kg; (po) 1.28 mg/kg.

Compound `CCOC(=O)c1cn2c(n1)c(=O)n(CC)c1ccccc12` [Example 5, Ethyl 4,5-dihydro-5-ethyl-4-oxoimidazo-[1,2-a]-quinoxaline-2-carboxylate] showed an ED50 (po) of 0.16 mg/kg.

For `CCn1c(=O)c2nc(C(=O)O)cn2c2ccccc21` [Example 6, 4,5-dihydro-5-ethyl-4-oxoimidazo-[1,2-a]-quinoxaline-2-carboxylic acid], the ED50 was 0.01 mg/kg (iv) and 0.45 mg/kg (po).

For the compound `CCCn1c(=O)c2nc(C(=O)O)cn2c2ccccc21` [Example 8, 4,5-dihydro-5-propyl-4-oxoimidazo-[1,2-a]-quinoxaline-2-carboxylic acid], the ED50 by setting is: (iv) 0.01 mg/kg; (po) 0.24 mg/kg.

Take `CCCCn1c(=O)c2nc(C(=O)O)cn2c2ccccc21` [Example 10, 4,5-dihydro-5-butyl-4-oxoimidazo-[1,2-a]-quinoxaline-2-carboxylic acid]: the ED50 reads like this: (iv) 0.023 mg/kg; (po) 0.59 mg/kg.
